Reference: the supplement of paper PMC10307832

How the values were obtained:
Assay in all cases: relative viability (nuclei count vs DMSO), 5 days (fraction); higher = more cells survive
R406 + Trametinib = compound: COc1cc(Nc2ncc(F)c(Nc3ccc4c(n3)NC(=O)C(C)(C)O4)n2)cc(OC)c1OC [R406] + CC(=O)Nc1cccc(-n2c(=O)n(C3CC3)c(=O)c3c(Nc4ccc(I)cc4F)n(C)c(=O)c(C)c32)c1 [Trametinib] (partner 0.02 µM)
Summary of the method: (§1)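 Medians of duplicate plates are given as relative viability. That measure is the nuclei count in treated wells divided by the count in vehicle wells. Counts were taken on 4× images of lung cancer cell lines in 1536-well plates, 5 days after pin-tool dosing the day after seeding with one drug alone or a fixed anchor-drug dose plus five library-drug doses (not always all listed) in √10 steps.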

R406 + Lapatinib = compound: COc1cc(Nc2ncc(F)c(Nc3ccc4c(n3)NC(=O)C(C)(C)O4)n2)cc(OC)c1OC [R406] + CS(=O)(=O)CCNCc1ccc(-c2ccc3ncnc(Nc4ccc(OCc5cccc(F)c5)c(Cl)c4)c3c2)o1 [Lapatinib] (partner 2 µM)
Summary of the method: as §1

R406 + Pictilisib = compound: COc1cc(Nc2ncc(F)c(Nc3ccc4c(n3)NC(=O)C(C)(C)O4)n2)cc(OC)c1OC [R406] + CS(=O)(=O)N1CCN(Cc2cc3nc(-c4cccc5[nH]ncc45)nc(N4CCOCC4)c3s2)CC1 [Pictilisib] (partner 1 µM)
Summary of the method: as §1

Daporinad + Trametinib = compound: O=C(/C=C/c1cccnc1)NCCCCC1CCN(C(=O)c2ccccc2)CC1 [Daporinad] + CC(=O)Nc1cccc(-n2c(=O)n(C3CC3)c(=O)c3c(Nc4ccc(I)cc4F)n(C)c(=O)c(C)c32)c1 [Trametinib] (partner 0.02 µM)
Summary of the method: as §1

## UMC-11
R406 + Trametinib; first compound 0.08 µM
  relative viability: 0.724
R406 + Trametinib; first compound 0.253 µM
  relative viability: 0.959
R406 + Trametinib; first compound 0.8 µM
  relative viability: 0.776
R406 + Trametinib; first compound 2.53 µM
  relative viability: 0.874
R406 + Trametinib; first compound 8 µM
  relative viability: 0.482
R406 + Lapatinib; first compound 0.08 µM
  relative viability: 0.952
R406 + Lapatinib; first compound 0.253 µM
  relative viability: 1.08
R406 + Lapatinib; first compound 0.8 µM
  relative viability: 1.06
R406 + Lapatinib; first compound 2.53 µM
  relative viability: 0.241
R406 + Lapatinib; first compound 8 µM
  relative viability: 0.378
R406 + Pictilisib; first compound 0.08 µM
  relative viability: 0.864
R406 + Pictilisib; first compound 0.253 µM
  relative viability: 1.07
R406 + Pictilisib; first compound 0.8 µM
  relative viability: 0.863
R406 + Pictilisib; first compound 2.53 µM
  relative viability: 0.568
R406 + Pictilisib; first compound 8 µM
  relative viability: 0.369
Daporinad + Trametinib; first compound 0.0005 µM
  relative viability: 0.645
Daporinad + Trametinib; first compound 0.001581 µM
  relative viability: 0.926
Daporinad + Trametinib; first compound 0.005 µM
  relative viability: 0.775
Daporinad + Trametinib; first compound 0.01581 µM
  relative viability: 1.14
